According to PubChem BioAssay AID256 (DTP/NCI, 2004):
Where “and” joins values, the source holds several entries; their conditions need not be identical. Equal values may be shown once. Toxic doses and inconclusive results are not listed. How the source made its calls: active means survival T/C of 150% or more; inactive means T/C below 125% in these data.

System: CD2F1 mice, L1210 leukemia ip, survival T/C
Test: NCI In Vivo Anticancer Drug Screen. Data for tumor model L1210 Leukemia (intraperitoneal) in CD2F1 (CDF1) mice
Settings: higher = longer survival
Method: The antitumor activity of compounds was measured in mice bearing transplantable tumors. Survival or tumor size were measured and the results are expressed as the measurement made in the treated group (T) divided by the measurement made in the vehicle treated control group (C). The tumor model used in this assay is L1210 Leukemia (intraperitoneal) in CD2F1 (CDF1) mice

[1] = endpoint: mean survival time, dose: 100.0 mg/kg/injection, schedule: Q01DX001 (ip), vehicle: saline with Tween-80
[2] = endpoint: mean survival time, dose: 100.0 mg/kg/injection, schedule: Q01DX009 (ip), vehicle: saline with Tween-80
[3] = endpoint: mean survival time, dose: 200.0 mg/kg/injection, schedule: Q01DX009 (ip), vehicle: saline with Tween-80
[4] = endpoint: mean survival time, dose: 400.0 mg/kg/injection, schedule: Q01DX009 (ip), vehicle: saline with Tween-80
[5] = endpoint: mean survival time, dose: 12.5 mg/kg/injection, schedule: Q01DX009 (ip), vehicle: saline
[6] = endpoint: mean survival time, dose: 25.0 mg/kg/injection, schedule: Q01DX009 (ip), vehicle: saline
[7] = endpoint: mean survival time, dose: 50.0 mg/kg/injection, schedule: Q01DX009 (ip), vehicle: saline
[8] = endpoint: mean survival time, dose: 100.0 mg/kg/injection, schedule: Q01DX009 (ip), vehicle: saline
[9] = endpoint: mean survival time, dose: 100.0 mg/kg/injection, schedule: Q04DX003 (ip), vehicle: saline with Tween-80
[10] = endpoint: mean survival time, dose: 200.0 mg/kg/injection, schedule: Q04DX003 (ip), vehicle: saline with Tween-80
[11] = endpoint: mean survival time, dose: 400.0 mg/kg/injection, schedule: Q04DX003 (ip), vehicle: saline with Tween-80
[12] = endpoint: mean survival time, dose: 200.0 mg/kg/injection, schedule: Q01DX001 (ip), vehicle: saline with Tween-80
[13] = endpoint: mean survival time, dose: 400.0 mg/kg/injection, schedule: Q01DX001 (ip), vehicle: saline with Tween-80

Measured: T/C

Cc1ccc2[nH]c(=O)[nH]c(=O)c2n1
inactive: endpoint: mean survival time, dose: 75.0 mg/kg/injection, schedule: Q01DX001 (ip), vehicle: other 98 % of control | endpoint: mean survival time, dose: 150.0 mg/kg/injection, schedule: Q01DX001 (ip), vehicle: other 98 % of control

OCCN(CCO)c1ccc(O)cc1
inactive: endpoint: mean survival time, dose: 5.0 mg/kg/injection, schedule: Q01DX001 (ip), vehicle: saline 92 % of control | endpoint: mean survival time, dose: 10.0 mg/kg/injection, schedule: Q01DX001 (ip), vehicle: saline 92 % of control | endpoint: mean survival time, dose: 20.0 mg/kg/injection, schedule: Q01DX001 (ip), vehicle: saline 92 % of control | endpoint: mean survival time, dose: 40.0 mg/kg/injection, schedule: Q01DX001 (ip), vehicle: saline 92 % of control | endpoint: mean survival time, dose: 75.0 mg/kg/injection, schedule: Q01DX001 (ip), vehicle: saline 103 % of control | endpoint: mean survival time, dose: 150.0 mg/kg/injection, schedule: Q01DX001 (ip), vehicle: saline 101 % of control

CC12CCC(=O)C(I)(I)C1=CCCC2=O (centres undefined)
inactive: [1] 91 % of control | [2] 88 % of control | [3] 88 % of control | [4] 87 % of control

CNc1nc2c(N)ncnc2n1C1OC(CO)C(O)C1O (centres undefined)
inactive: endpoint: mean survival time, dose: 3.12 mg/kg/injection, schedule: Q01DX009 (ip), vehicle: saline 95 % of control | endpoint: mean survival time, dose: 6.25 mg/kg/injection, schedule: Q01DX009 (ip), vehicle: saline 106 % of control | [5] 106 % of control and 107 % of control | endpoint: mean survival time, dose: 12.5 mg/kg/injection, schedule: Q04DX002 (ip), vehicle: saline 98 % of control | endpoint: mean survival time, dose: 25.0 mg/kg/injection, schedule: Q01DX005 (ip), vehicle: distilled water + Tween-80 96 % of control | [6] 115 % of control and 101 % of control | endpoint: mean survival time, dose: 25.0 mg/kg/injection, schedule: Q04DX002 (ip), vehicle: saline 102 % of control | endpoint: mean survival time, dose: 50.0 mg/kg/injection, schedule: Q01DX005 (ip), vehicle: distilled water + Tween-80 103 % of control | [7] 102 % of control | endpoint: mean survival time, dose: 50.0 mg/kg/injection, schedule: Q04DX002 (ip), vehicle: saline 112 % of control | endpoint: mean survival time, dose: 100.0 mg/kg/injection, schedule: Q01DX005 (ip), vehicle: distilled water + Tween-80 100 % of control | [8] 108 % of control | endpoint: mean survival time, dose: 200.0 mg/kg/injection, schedule: Q01DX005 (ip), vehicle: distilled water + Tween-80 96 % of control | endpoint: mean survival time, dose: 400.0 mg/kg/injection, schedule: Q01DX005 (ip), vehicle: distilled water + Tween-80 101 % of control

Nc1cccc2sccc12
inactive: endpoint: mean survival time, dose: 100.0 mg/kg/injection, schedule: Q04DX003 (ip), vehicle: other 106 % of control | endpoint: mean survival time, dose: 200.0 mg/kg/injection, schedule: Q04DX003 (ip), vehicle: other 113 % of control | endpoint: mean survival time, dose: 400.0 mg/kg/injection, schedule: Q04DX003 (ip), vehicle: other 101 % of control

Cc1ccc([N+](=O)[O-])cc1NC(=O)Nc1ccon1
inactive: endpoint: mean survival time, dose: 50.0 mg/kg/injection, schedule: Q01DX009 (ip), vehicle: Klucel (hydroxypropylcellulose) (HPC) 108 % of control | endpoint: mean survival time, dose: 100.0 mg/kg/injection, schedule: Q01DX009 (ip), vehicle: Klucel (hydroxypropylcellulose) (HPC) 96 % of control | endpoint: mean survival time, dose: 200.0 mg/kg/injection, schedule: Q01DX009 (ip), vehicle: Klucel (hydroxypropylcellulose) (HPC) 98 % of control

COc1ccc(C(Sc2ccccc2)c2ccc(OC)cc2)cc1
inactive: [2] 95 % of control | [9] 95 % of control | [3] 90 % of control | [10] 95 % of control | [4] 86 % of control | [11] 96 % of control

CN(C)C(=S)Nc1ccc(Cl)cc1
inactive: [9] 98 % of control | [10] 98 % of control | [11] 100 % of control

COC(=O)C1C2OC3C(OC(=O)C31)C2Br (centres undefined)
inactive: [2] 91 % of control | [9] 86 % of control | [3] 91 % of control | [10] 94 % of control | [4] 95 % of control | [11] 91 % of control

O=C(NC(=S)Nc1cccc2ccccc12)c1cccc(Br)c1
inactive: endpoint: mean survival time, dose: 50.0 mg/kg/injection, schedule: Q04DX002 (ip), vehicle: saline with Tween-80 89 % of control and 98 % of control | [1] 96 % of control | [2] 98 % of control and 104 % of control | [9] 96 % of control | [12] 95 % of control | [3] 96 % of control and 98 % of control | [10] 100 % of control | [13] 95 % of control | [4] 102 % of control and 106 % of control | endpoint: mean survival time, dose: 400.0 mg/kg/injection, schedule: Q04DX002 (ip), vehicle: saline with Tween-80 90 % of control and 95 % of control | [11] 96 % of control

CCN(CC)C(=O)c1ccc[n+](Cc2ccc(Cl)cc2)c1
inactive: endpoint: mean survival time, dose: 100.0 mg/kg/injection, schedule: Q04DX003 (ip), vehicle: saline 102 % of control

COC(=O)C12OCC34C(CC5C(C)=C(O)C(=O)CC5(C)C3C(O)C1O)OC(=O)C(OC(=O)C=C(C)C)C24 (centres undefined)
inactive: endpoint: mean survival time, dose: 125.0 micrograms/kg/injection, schedule: Q01DX009 (ip), vehicle: saline + alcohol 103 % of control | endpoint: mean survival time, dose: 250.0 micrograms/kg/injection, schedule: Q01DX009 (ip), vehicle: saline + alcohol 100 % of control | endpoint: mean survival time, dose: 500.0 micrograms/kg/injection, schedule: Q01DX009 (ip), vehicle: saline + alcohol 98 % of control | endpoint: mean survival time, dose: 1000.0 micrograms/kg/injection, schedule: Q01DX009 (ip), vehicle: saline + alcohol 104 % of control | endpoint: mean survival time, dose: 2000.0 micrograms/kg/injection, schedule: Q01DX009 (ip), vehicle: saline + alcohol 101 % of control | endpoint: mean survival time, dose: 4000.0 micrograms/kg/injection, schedule: Q01DX009 (ip), vehicle: saline + alcohol 115 % of control

CN(C)c1ccc(/C=N/NC(=O)CC2CCCCC2)cc1
inactive: [2] 90 % of control | [3] 93 % of control | [4] 93 % of control

CN(C)C(=O)c1cc2ccccc2n1C
inactive: [1] 97 % of control | [12] 98 % of control | [13] 94 % of control

O=C(O)CC(=O)O.OC(CN=Cc1ccccc1)CN=Cc1ccccc1.[Pt] (centres undefined)
inactive: endpoint: median survival time, dose: 10.0 mg/kg/injection, schedule: Q04DX003 (ip), vehicle: distilled water + Tween-80 103 % of control | endpoint: median survival time, dose: 20.0 mg/kg/injection, schedule: Q04DX003 (ip), vehicle: distilled water + Tween-80 104 % of control | endpoint: median survival time, dose: 40.0 mg/kg/injection, schedule: Q04DX003 (ip), vehicle: distilled water + Tween-80 102 % of control | endpoint: median survival time, dose: 80.0 mg/kg/injection, schedule: Q04DX003 (ip), vehicle: distilled water + Tween-80 116 % of control and 105 % of control | endpoint: median survival time, dose: 160.0 mg/kg/injection, schedule: Q04DX003 (ip), vehicle: distilled water + Tween-80 108 % of control | endpoint: median survival time, dose: 320.0 mg/kg/injection, schedule: Q04DX003 (ip), vehicle: distilled water + Tween-80 109 % of control

COCC1=Nc2c(ncnc2SCc2ccccc2)NN1
inactive: endpoint: mean survival time, dose: 100.0 mg/kg/injection, schedule: Q01DX001 (ip), vehicle: other 95 % of control

OCC1(CO)COC2(CCCCC2)N1
inactive: [5] 101 % of control and 103 % of control | [6] 103 % of control and 104 % of control | [7] 98 % of control | [8] 95 % of control and 103 % of control | endpoint: mean survival time, dose: 200.0 mg/kg/injection, schedule: Q01DX009 (ip), vehicle: saline 97 % of control | endpoint: mean survival time, dose: 400.0 mg/kg/injection, schedule: Q01DX009 (ip), vehicle: saline 95 % of control and 104 % of control

Cc1nc(-c2ccccc2)c(Cc2c(O)ccc3ccccc23)c(=O)[nH]1
inactive: endpoint: mean survival time, dose: 100.0 mg/kg/injection, schedule: Q01DX001 (ip), vehicle: saline 97 % of control | endpoint: mean survival time, dose: 200.0 mg/kg/injection, schedule: Q01DX001 (ip), vehicle: saline 100 % of control | endpoint: mean survival time, dose: 400.0 mg/kg/injection, schedule: Q01DX001 (ip), vehicle: saline 100 % of control

COC(=O)NC1C(C)OC(OC2C/C=C(/C)C3C=CC4C(OC5CC(OC6CC(O)C(OC7CC(O)C(OC)C(C)O7)C(C)O6)C(O)C(C)O5)C(C)CC(C)C4C3(C)/C(O)=C3\C(=O)OC4(CC(C)C(CO)=CC4/C=C\2C)C3=O)CC1(C)[N+](=O)[O-] (centres undefined)
inactive: endpoint: median survival time, dose: 12.5 mg/kg/injection, schedule: Q01DX009 (ip), vehicle: Klucel (hydroxypropylcellulose) (HPC) 102 % of control | endpoint: median survival time, dose: 25.0 mg/kg/injection, schedule: Q01DX009 (ip), vehicle: Klucel (hydroxypropylcellulose) (HPC) 109 % of control | endpoint: median survival time, dose: 50.0 mg/kg/injection, schedule: Q01DX009 (ip), vehicle: Klucel (hydroxypropylcellulose) (HPC) 102 % of control | endpoint: median survival time, dose: 100.0 mg/kg/injection, schedule: Q01DX009 (ip), vehicle: Klucel (hydroxypropylcellulose) (HPC) 103 % of control

O.O.[NH-]C1CCCCC1[NH-].[Pt+2] (centres undefined)
inactive: endpoint: mean survival time, dose: 0.31 mg/kg/injection, schedule: Q01DX009 (ip), vehicle: dextrose 109 % of control | endpoint: mean survival time, dose: 0.63 mg/kg/injection, schedule: Q04DX003 (ip), vehicle: water 124 % of control | endpoint: mean survival time, dose: 1.25 mg/kg/injection, schedule: Q01DX009 (ip), vehicle: dextrose 124 % of control
